In data set [1] the test system is HaCaT cell line (human keratinocytes). The data set can be described thus: MTT assay, cell viability. In kind it is cell-based. As to conditions: 24 h. On the procedure:
Human keratinocytes cell line HaCaT was from ATCC. Cells were cultured in DMEM supplemented with 10% FBS and 1% penicillin/streptomycin and were incubated at 37 °C, in a humidified atmosphere of 5% CO2.
Cells were seeded in 96-well plates (1.5 × 10^4 cells/well) and left to attach for 24 h. After this period, cells were incubated with different concentrations of the molecules under study for another 24 h. Then, cell viability was evaluated based on the ability of metabolically active cells to convert MTT to formazan over the course of 2 h. Absorbances were measured at 570 nm in a Multiskan GO plate reader (Thermo Fisher Scientific; Waltham, MA, USA) and results were expressed as percentage of the respective control and correspond to the mean ± standard error of the mean (SEM) of at least three independent experiments performed in triplicate. On the other hand, to assess the release of the stable cytosolic enzyme lactate dehydrogenase (LDH) into the media, 24 h after the incubation of the cells with the different concentrations of the molecules under study, 40 µL of culture media were removed to a 96-well plate. LDH released was determined using a CytoTox 96® assay kit (Promega; Madison, WI, USA) according to the manufacturer’s instructions. Then, 1% Triton X-100 was used as positive control to assure cell lysis (30 min). Absorbances were measured at 490 nm in a Multiskan GO plate reader (Thermo Fisher Scientific; Waltham, MA, USA), and results correspond to the fold-increase of absorbance in treated vs. untreated cells of three independent experiments performed in duplicate. Following assessment of the distribution of the results, ANOVA was performed using GraphPad Prism 8.0 (GraphPad Prism Inc., San Diego, CA, USA).
A general note: Tetrazolium dyes change colour on reduction, which living cells bring about.

The nature of data set [2]: Sustained release assay of model cargo from hydrogels. On the procedure: Hydrogels containing cationic, anionic, or zwitterionic model drugs were prepared using the same conditions described in Section 2.2 but with the water component (1 mL) being replaced by a methylene blue solution, methyl orange solution, or ciprofloxacin solution. In a modified version of the method described by Abraham et al., water was carefully layered on top of the hydrogel surface. Then, the percentage release of model drug was recorded versus time, over 6 days, through UV absorption measurements or by HPLC and then subsequently fitted to a standard calibration curve (Figure S10 in Supplementary Information). The experiments were also assessed visually (Figure 9). […] In the studies involving the release of methyl orange, a clearly visible release of the anionic dye into the layered water solution was observed from the three hydrogels after several days (Figure 9B,D,F centre). The results for the release of methyl orange were also confirmed quantitatively by UV absorption measurements. Hydrogelators 1 and 3, which contain a phenylalanine residue, release nearly 60% of the anionic methyl orange cargo, whereas hydrogel 2, containing a tyrosine residue, released more than 90%. […] Ciprofloxacin was included as an overall neutral cargo. In experiments involving hydrogels of compounds 1–3 containing ciprofloxacin, the amount of ciprofloxacin present in the above water layer was determined by HPLC at various time-points. Hydrogelators 1, 2, and 3 release 32%, 58%, and 20% of their ciprofloxacin cargo, respectively (Table 4) (Figure S11 in Supplementary Information). As observed for methyl orange, the hydrogel that releases the greatest amount of ciprofloxacin is the hydrogel obtained from compound 2 (Table 4, Figure S11 in Supplementary Information).
To quantitatively evaluate the drug release from hydrogels 1–3, several mathematical models were tested to see which one fits the tested hydrogels. The Korsmeyer–Peppas model is the preferred model for polymeric systems. Korsmeyer described a simple relationship that described drug release from a polymeric system that includes both the diffusion and erosion of the polymer chain. The following equation describes the Korsmeyer–Peppas model: Mt/M = Kt^n
Hydrogels of 1, 2, and 3 were prepared as described in Section 4.2 to form 1 mL hydrogels containing the same concentration of the hydrogelators described above and the appropriate cargo (methylene blue ([…]), methyl orange (0.2 nM), or ciprofloxacin (0.2 nM)), in a slightly modified version of the procedure described by Abraham et al.. After allowing to stand overnight, 1.5 mL of water was carefully added to the surface of the hydrogels. Aliquots of the layered solution (100 μL) were removed at 1 h, 2 h, 3 h, 4 h, 6 h, 24 h, 72 h, and 6 days from the time the water was initially layered on top of the hydrogel. After removing each aliquot, the volume water was immediately replaced by an equal volume of water. The concentration of methylene blue or methyl orange in each aliquot was determined by measuring the absorbance at λmax of the dye (666 nm for methylene blue and 465 nm for methyl orange) using a microplate reader and then converting the value to percentage release (using a standard calibration curve). The concentration of ciprofloxacin in each aliquot was determined using analytical HPLC, where the integrated peak area was converted to a percentage release (using a standard calibration curve). Each experiment was performed in triplicate, and the mean percentage cargo release was plotted against time.

With `O=C(O)/C(=C/c1ccccc1)NC(=O)[C@H](Cc1ccccc1)NC(=O)c1ccc(C(=O)N[C@@H](Cc2ccccc2)C(=O)N/C(=C\c2ccccc2)C(=O)O)cc1` [Compound 1], the “Apparent loss of cell viability (mitochondrial activity)” value in data set [1] (most concentrations tested, independent of concentration) is reported as “around 20%”. The “K, release rate constant, Korsmeyer–Peppas model” value (from here on “K, release rate constant”) in data set [2] (ciprofloxacin release profile) and in data set [2] (methyl orange release profile) was 0.0200 throughout. For the same compound, the “n, release exponent, Korsmeyer–Peppas model” value (“n, release exponent” for short) in data set [2] (ciprofloxacin release profile) was 0.3300; in data set [2] (methyl orange release profile), 0.4000.
With `O=C(O)/C(=C/c1ccccc1)NC(=O)[C@H](Cc1ccc(O)cc1)NC(=O)c1ccc(C(=O)N[C@@H](Cc2ccc(O)cc2)C(=O)N/C(=C\c2ccccc2)C(=O)O)cc1` [Compound 2], in data set [1], the “Effect on HaCaT viability” value was “mostly devoid of any effect”. Besides, in data set [1] (the two highest concentrations), the “Loss of mitochondrial activity” value is “around 10%”. In data set [2] (ciprofloxacin release profile), the “K, release rate constant” value came to 0.0030 and the “n, release exponent” value is given as 0.5800. In addition, in data set [2] (methyl orange release profile), the “K, release rate constant” value came to 0.0900 and the “n, release exponent” value is listed as 0.2700.
